Source: publication PMC5827777, “Synthesis and biological evaluation of RGD and isoDGR peptidomimetic-α-amanitin conjugates for tumor-targeting” (Beilstein Journal of Organic Chemistry, 2018)

Columns and labels:
αVβ5 receptor [1] = experiment: Inhibition of biotinylated vitronectin binding to αVβ5 receptor; conditions: ratio of IC50 values of Table 1
[2] = biological target: T1, Recombinant human integrin αVβ3 (Homo sapiens, UniProt P05106+P06756); parameters: method as in PMID 22517378, PMID 23424096; conditions: free ligands, Table 1; mean ± SD of triplicate determinations; read-out: IC50 αVβ3, inhibition of biotinylated vitronectin binding; cited from earlier work
T1 construct: purchased R&D Systems, Minneapolis, MN, USA

αVβ5 receptor [3] = biological target: αVβ5 receptor; parameters: method as in PMID 22517378, PMID 23424096; conditions: free ligands, Table 1; mean ± SD of triplicate determinations; read-out: IC50 αVβ5, inhibition of biotinylated vitronectin binding; cited from earlier work

T1 sequence (P06756 31-992 limits assumed): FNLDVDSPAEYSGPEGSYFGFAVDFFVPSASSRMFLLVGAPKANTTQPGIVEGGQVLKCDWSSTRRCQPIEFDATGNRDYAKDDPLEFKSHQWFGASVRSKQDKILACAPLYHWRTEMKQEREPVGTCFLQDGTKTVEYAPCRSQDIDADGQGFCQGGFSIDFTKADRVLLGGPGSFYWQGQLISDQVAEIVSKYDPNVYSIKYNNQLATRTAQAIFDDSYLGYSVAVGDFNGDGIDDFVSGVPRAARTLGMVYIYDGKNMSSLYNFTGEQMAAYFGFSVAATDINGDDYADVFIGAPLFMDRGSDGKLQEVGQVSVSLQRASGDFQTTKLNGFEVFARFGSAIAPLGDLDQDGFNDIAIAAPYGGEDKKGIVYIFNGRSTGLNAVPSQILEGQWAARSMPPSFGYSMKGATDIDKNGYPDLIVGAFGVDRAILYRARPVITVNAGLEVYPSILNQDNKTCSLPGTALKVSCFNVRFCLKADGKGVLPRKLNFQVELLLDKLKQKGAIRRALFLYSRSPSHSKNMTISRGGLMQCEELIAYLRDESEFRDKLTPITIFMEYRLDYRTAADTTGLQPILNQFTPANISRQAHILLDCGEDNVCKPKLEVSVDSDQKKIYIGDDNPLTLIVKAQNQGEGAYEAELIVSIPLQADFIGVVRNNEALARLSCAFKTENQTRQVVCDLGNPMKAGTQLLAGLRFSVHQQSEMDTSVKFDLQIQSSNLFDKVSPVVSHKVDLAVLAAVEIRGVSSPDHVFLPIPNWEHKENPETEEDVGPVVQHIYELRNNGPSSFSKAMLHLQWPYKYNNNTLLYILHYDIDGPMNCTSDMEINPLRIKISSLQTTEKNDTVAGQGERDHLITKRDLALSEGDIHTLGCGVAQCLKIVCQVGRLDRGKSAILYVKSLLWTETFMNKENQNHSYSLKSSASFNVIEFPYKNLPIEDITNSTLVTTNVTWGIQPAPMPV
T1 sequence (P05106 27-718 limits assumed): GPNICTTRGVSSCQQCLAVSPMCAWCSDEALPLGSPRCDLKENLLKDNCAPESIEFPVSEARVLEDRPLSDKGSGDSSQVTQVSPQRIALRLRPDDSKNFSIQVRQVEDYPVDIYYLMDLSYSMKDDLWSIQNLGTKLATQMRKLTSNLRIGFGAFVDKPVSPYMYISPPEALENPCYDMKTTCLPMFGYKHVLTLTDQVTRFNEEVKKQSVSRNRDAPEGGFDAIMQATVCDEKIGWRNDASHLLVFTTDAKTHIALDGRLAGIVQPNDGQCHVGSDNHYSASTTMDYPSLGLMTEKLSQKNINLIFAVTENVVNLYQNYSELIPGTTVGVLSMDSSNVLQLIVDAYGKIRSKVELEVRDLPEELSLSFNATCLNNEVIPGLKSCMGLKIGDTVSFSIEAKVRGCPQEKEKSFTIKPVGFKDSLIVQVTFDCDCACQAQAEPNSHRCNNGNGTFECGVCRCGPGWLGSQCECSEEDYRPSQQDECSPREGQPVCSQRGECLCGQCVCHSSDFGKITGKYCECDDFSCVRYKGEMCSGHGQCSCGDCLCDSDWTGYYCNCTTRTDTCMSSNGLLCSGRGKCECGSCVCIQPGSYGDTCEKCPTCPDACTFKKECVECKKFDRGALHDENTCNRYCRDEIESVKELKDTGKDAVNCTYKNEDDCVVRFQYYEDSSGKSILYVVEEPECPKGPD

For N=C(N)NCCC[C@@H]1NC(=O)CNC(=O)C[C@@H](C(=O)O)NC(=O)C[C@H]2NC(=O)[C@H](CNC1=O)N(Cc1ccccc1)C2=O [Ligand 3, cyclo[DKP-isoDGR]], the “selectivity for αVβ3 in comparison with integrin αVβ5” value (αVβ5 receptor [1]) is listed as 33–34 times, the IC50 [2] is listed as 9.2 ± 1.1 nM and the IC50 (αVβ5 receptor [3]) is listed as 312 ± 21 nM.
